Values quoted from earlier work in patent US8088413B2, “Methods for improved cryo-chemotherapy tissue ablation” (Nuvue Therapeutics, Inc., priority 2004, dated 2012).

Columns and labels:
human prostate cancer = settings: pretreatment; temperatures close to 0° C.
[1] = tested on: human prostate cancer cell line, PC3; settings: free drug given 2 to 4 days prior to freezing; drug and cryo levels individually ineffective

Compound | effect on cryoinjury (human prostate cancer) | kill efficacy of cryoinjury [1]
Tumor Necrosis Factor-alpha | augments the cryoinjury | 
O=c1[nH]cc(F)c(=O)[nH]1 [5-fluorouracil (5-FU), 5-fluorouracil] |  | increased kill efficacy
